According to ChEMBL document CHEMBL4354883, “Design, Synthesis, and Biological Evaluation of HSP90 Inhibitor-SN38 Conjugates for Targeted Drug Accumulation” (J Med Chem, 2020):
The source made the active and inactive calls. The rule behind the calls is not given here.

Tests used:
[1] = Half life of compound in PBS buffer at pH 6.0 at 50 uM by HPLC analysis; type: physicochemical
[2] = Half life of compound in PBS buffer at pH 7.4 at 50 uM by HPLC analysis; type: physicochemical
[3] = Half life in mouse plasma at 25 uM by HPLC analysis; type: ADME, cell-free
[4] = Half life in human plasma at 25 uM by HPLC analysis; type: ADME, cell-free
[5] = Drug uptake in human A549 cells assessed as blue shift in absorption spectrum at 5 uM by UV-visible absorption spectral analysis; type: ADME, cell-based; conditions: a549, 5 µM
[6] = Drug uptake in human A549 cells assessed as maximum emission peaks at 430 nm at 5 uM by fluorescence emission spectral analysis; type: ADME, cell-based; conditions: a549, 5 µM
[7] = Drug uptake in human A549 cells assessed as blue fluorescence at 5 uM after 12 hrs by confocal laser scanning microscopic analysis; type: ADME, cell-based; conditions: a549, 12 h
[8] = Drug uptake in human A549 cells assessed as endocytosis-mediated total cellular drug internalization at 5 uM after 12 hrs by LC-MS/MS analysis relative to irinotecan; type: ADME, cell-based; conditions: a549, 12 h
[9] = Drug uptake in human A549 cells assessed as endocytosis-mediated total cellular drug internalization at 5 uM after 12 hrs by LC-MS/MS analysis relative to SN38; type: ADME, cell-based; conditions: a549, 12 h
A549 [10] = test: Antiproliferative activity against human A549 cells assessed as reduction in cell viability after 72 hrs by SRB assay; type: functional, cell-based; conditions: A549, 72 h
HCT-116 [11] = test: Antiproliferative activity against human HCT116 cells assessed as reduction in cell viability after 72 hrs by SRB assay; type: functional, cell-based; conditions: HCT-116, 72 h
MIA PaCa-2 = test: Antiproliferative activity against human MIAPaCa2 cells assessed as reduction in cell viability after 72 hrs by SRB assay; type: functional, cell-based; conditions: MIA PaCa-2, 72 h
CAPAN-1 [12] = test: Antiproliferative activity against human Capan1 cells assessed as reduction in cell viability after 72 hrs by SRB assay; type: functional, cell-based; conditions: CAPAN-1, 72 h
L02 = test: Cytotoxicity agains human HL7702 cells assessed as reduction in cell viability after 72 hrs by SRB assay; type: cell-based; conditions: L02, 72 h
A549 [13] = test: Induction of cell cycle arrest in human A549 cells assessed as accumulation at G2/M phase after 24 hrs by RNase A/PI-staining based flow cytometric analysis; type: functional
HCT-116 [14] = test: Induction of cell cycle arrest in human HCT116 cells assessed as accumulation at G2/M phase after 24 hrs by RNase A/PI-staining based flow cytometric analysis; type: functional
CAPAN-1 [15] = test: Induction of cell cycle arrest in human Capan1 cells assessed as accumulation at G2/M phase after 24 hrs by RNase A/PI-staining based flow cytometric analysis; type: functional
A549 [16] = test: Downregulation of TOP1 expression in human A549 cells after 24 hrs by Western blot analysis; type: functional, cell-based
HCT-116 [17] = test: Downregulation of TOP1 expression in human HCT116 cells after 24 hrs by Western blot analysis; type: functional, cell-based
Heat shock protein HSP90 [18] = molecular target: T1, Heat shock protein HSP90 (Homo sapiens, UniProt P07900+P08238); test: Inhibition of HSP90 in human HCT116 cells assessed as upregulation of HSP70 expression at 0.2 to 5 uM after 24 hrs by Western blot analysis; type: cell-based
[19] = Metabolic stability in human liver microsomes assessed as compound remaining at 1 uM preincubated for 5 mins followed by NADPH addition and measured after 60 mins by LC-MS/MS analysis; type: ADME, Microsome; conditions: read-out: Stability
[20] = Half life in human liver microsomes at 1 uM preincubated for 5 mins followed by NADPH addition and measured up to 360 mins by LC-MS/MS analysis; type: ADME, Microsome
[21] = Intrinsic clearance in human liver microsomes at 1 uM preincubated for 5 mins followed by NADPH addition and measured up to 360 mins by LC-MS/MS analysis; type: ADME, Microsome; conditions: 6 h
[22] = Half life in BALB/c mouse at 50 mg/kg, iv after 5 to 24 hrs by LC-MS/MS analysis; type: ADME, organism-based; conditions: in vivo
[23] = AUC(0 to infinity) in BALB/c mouse at 50 mg/kg, iv after 5 to 24 hrs by LC-MS/MS analysis; type: ADME, organism-based; design: dose 50 mg/kg, route intravenous, time infinity; conditions: in vivo
[24] = Apparent volume of distribution at steady state in BALB/c mouse at 50 mg/kg, iv after 5 to 24 hrs by LC-MS/MS analysis; type: ADME, organism-based; conditions: in vivo, read-out: Vdss(app)
[25] = Clearance in BALB/c mouse at 50 mg/kg, iv after 5 to 24 hrs by LC-MS/MS analysis; type: ADME, organism-based; conditions: in vivo
HCT-116 [26] = test: Antitumor activity against human HCT116 cells xenografted in mouse assessed as reduction in tumor growth at 50 mg/kg, iv for 5 consecutive days per week and measured every 3 to 4 days up to 14 days; type: functional, organism-based
HCT-116 [27] = test: Antitumor activity against human HCT116 cells xenografted in mouse assessed as reduction in tumor volume at 50 mg/kg, iv for 5 consecutive days per week and measured every 3 to 4 days up to 14 days by microcaliper analysis relative to control; type: functional
HCT-116 [28] = test: Antitumor activity against human HCT116 cells xenografted in mouse assessed as tumor weight at 50 mg/kg, iv for 5 consecutive days per week and measured every 3 to 4 days up to 14 days (reference value: 1.73 +/- 0.53 g); type: functional
[29] = Toxicity in mouse xenografted with human HCT116 cells assessed as body weight loss at 50 mg/kg, iv for 5 consecutive days per week and measured every 3 to 4 days up to 14 days relative to control; type: organism-based; conditions: in vivo
[30] = Drug uptake in human A549 cells assessed as eHSP90-mediated total cellular drug internalization at 5 uM after 12 hrs by LC-MS/MS analysis; type: ADME, cell-based; conditions: a549, 12 h
A549 [31] = test: Ratio of prodrug release in human A549 cells assessed as increase in 7-ethyl-10-hydroxycamptothecin level at 5 uM after 12 hrs by LC-MS/MS analysis to prodrug release in human A549 cells assessed as increase in 7-ethyl-10-hydroxycamptothecin level at 5 uM after 1 hr by LC-MS/MS analysis; type: ADME, cell-based; conditions: a549, 5 µM
Heat shock protein HSP90 [32] = molecular target: T1, Heat shock protein HSP90; test: Drug uptake in human A549 cells assessed as eHSP90-mediated drug internalization by measuring blue fluorescence in PBS solution at 5 uM after 1 to 12 hrs by confocal laser scanning microscopic analysis; type: ADME, cell-based; conditions: a549, 5 µM, TDE = time-dependent effect
[33] = molecular target: Heat shock protein HSP 90-alpha (Homo sapiens, UniProt P07900); test: biochemical
Description: Inhibition of recombinant human full length HSP90 alpha expressed in Escherichia coli cells after 1 hr by fluorescence polarization assay

Mus musculus = test: In vivo inhibition of topoisomerase 1 in mouse xenografted with human Capan1 cells assessed as increase in phosphorylated KAP1 expression at 50 mg/kg, iv for every 2 days measured at 2 hrs post last dose by Western blot analysis; type: functional, organism-based
[34] = Prodrug release in mouse plasma xenografted with human Capan1 cells assessed as increase in 7-ethyl-10-hydroxycamptothecin level at 50 mg/kg, iv after 30 mins to 72 hrs by LC-MS/MS analysis; type: ADME, organism-based; conditions: in vivo
CAPAN-1 [35] = test: Antitumor activity against human Capan1 cells xenografted in mouse assessed as increase in apoptosis of tumor cells by measuring increase in green fluorescence at 50 mg/kg, iv for every 2 days measured at 2 hrs post last dose by TUNEL assay; type: functional, organism-based

SMILES	half-life at 50 µM [1] [h]	half-life at 50 µM [2] [h]	half-life at 25 µM [3] [h]	half-life at 25 µM [4] [h]	Drug uptake [5]	Drug uptake [6]	Drug uptake [7]	fold change (FC) [8]	fold change (FC) [9]	IC50 (A549 [10]) [nM]	IC50 (HCT-116 [11]) [nM]	IC50 (MIA PaCa-2) [nM]	IC50 (CAPAN-1 [12]) [nM]	IC50 (L02) [nM]	Activity (A549 [13])	Activity (HCT-116 [14])	Activity (CAPAN-1 [15])	TOP1 downregulation (A549 [16])	inhibition (HCT-116 [17])	remaining at 1 h, 1 µM [19] [%]	further results
CCc1c2c(nc3ccc(OC(=O)N4CCC(NC(=O)c5noc(-c6cc(C(C)C)c(O)cc6O)c5-c5ccc(CN6CCOCC6)cc5)CC4)cc13)-c1cc3c(c(=O)n1C2)COC(=O)[C@]3(O)CC	> 24	> 24	> 24	> 24	Active	Active	Active	2.8 to 3.8	1.6 to 1.9	1110	614	644	6800	7360	Dose-dependent effect	Dose-dependent effect	Dose-dependent effect	Dose-dependent effect	Dose-dependent effect	87	inhibition (Heat shock protein HSP90 [18]): Active; half-life at 1 µM [20]: 2.6 h; CLH [21]: 4.9 mL/min/kg; half-life [22]: 1.72 h; AUC(0-inf) [23]: 172 µg·h/mL; Vd [24]: 0.103 L/kg; clearance [25]: 6.91 mL/min/kg; Activity (HCT-116 [26]): Active; T/C (HCT-116 [27]): 33.8%; Activity (HCT-116 [28]): 0.47 g; Activity [29]: < 20%; Drug uptake [30]: Active; Ratio (A549 [31]): 3.7; Drug uptake (Heat shock protein HSP90 [32]): Tde; IC50 [33]: 164 nM
CCc1c2c(nc3ccc(O)cc13)-c1cc3c(c(=O)n1C2)COC(=O)[C@@]3(CC)OC(=O)CNC(=O)c1noc(-c2cc(C(C)C)c(O)cc2O)c1-c1ccc(CN2CCOCC2)cc1	> 24	10	10.5	13	Active	Active	Active	2.8 to 3.8	1.6 to 1.9	56	22	46	36	6870	Dose-dependent effect	Dose-dependent effect	Dose-dependent effect	Dose-dependent effect	Dose-dependent effect	80	half-life at 1 µM [20]: 2.1 h; CLH [21]: 5.7 mL/min/kg; half-life [22]: 1.31 h; AUC(0-inf) [23]: 148 µg·h/mL; Vd [24]: 0.101 L/kg; clearance [25]: 5.81 mL/min/kg; Activity (HCT-116 [26]): Active; T/C (HCT-116 [27]): 16.7%; Activity (HCT-116 [28]): 0.32 g; Activity [29]: < 20%; inhibition (Mus musculus): Active; Drug metabolism [34]: Metabolite_Detected; Activity (CAPAN-1 [35]): Active; Drug uptake [30]: Active; Ratio (A549 [31]): 4.3; Drug uptake (Heat shock protein HSP90 [32]): Tde; IC50 [33]: 72 nM
